We go through one molecule from patent publication US20140309291A1, “Compositions and Methods for Increasing Stress Resilience” (The Children's Hospital of Philadelphia, priority 2011, published 2014).

Assay [1] is described as follows: social interaction test of anxiety after social defeat stress. The assay is classed as in vivo, rats. As to the method: Animals were exposed to 7 days of social defeat stress. During these 7 days of defeat stress the average latency to defeat was observed. Based on this latency to defeat, animals were either classified as short latency (SL, defeat <300 seconds) or long latency (LL, defeat >300 seconds).
Following 7 days of defeat, the SL and LL groups were divided into two separate treatment groups receiving either vehicle or FTY720, 1 hour prior to social defeat stress on the following 3 days. Defeat latencies were recorded. Additionally, 48 hours following the end of social defeat stress, animals were tested in the social interaction test of anxiety.

Assay [2] can be described thus: social defeat paradigm (defeat latency). The assay is classed as in vivo, rats. Conditions: SL (short latency, vulnerable) animals; drug given 1 hour prior to social defeat stress on 3 days following 7 days of defeat; p=0.0726 (FIG. 2A). The text has this:
The social defeat paradigm used in these studies was modified from the resident-intruder model (Miczek, K. A. (1979) Psychopharmacology (Berl) 60:253-259). Rats were randomly assigned to either a social defeat or control group for a consecutive 7 days (Bhatnagar et al. (2006) J. Neuroendocrinol., 18:13-24; Buwalda et al. (1999) J. Neuroendocrinol., 11:513-520). During each episode of social stress, a rat was placed into the home cage territory of an unfamiliar Long-Evans resident previously screened for high aggression (Bhatnagar et al. (2006) J. Neuroendocrinol., 18:13-24; Buwalda et al. (1999) J. Neuroendocrinol., 11:513-520). […] After defeat, a wire mesh enclosure was placed in the cage to prevent physical contact between the resident and intruder but allowing visual, auditory, and olfactory contact for the remainder of the 30-minute defeat session. Latency to assume a submissive posture (defeat) was recorded and averaged over the seven daily defeat exposures. […] Rats were returned to their home cage after each session, and body weight was recorded on days 1 and 8. […]
Following 7 days of defeat, the SL and LL groups were divided into two separate treatment groups receiving either vehicle or FTY720, 1 hour prior to social defeat stress on the following 3 days. Defeat latencies were recorded. […]

Assay [3] addresses S1P3 receptor (Homo sapiens, UniProt Q99500). Conditions: multiple Sph receptors, including the S1P3 receptor; cited from earlier work.

Sequence of S1P3 receptor (Q99500 whole entry): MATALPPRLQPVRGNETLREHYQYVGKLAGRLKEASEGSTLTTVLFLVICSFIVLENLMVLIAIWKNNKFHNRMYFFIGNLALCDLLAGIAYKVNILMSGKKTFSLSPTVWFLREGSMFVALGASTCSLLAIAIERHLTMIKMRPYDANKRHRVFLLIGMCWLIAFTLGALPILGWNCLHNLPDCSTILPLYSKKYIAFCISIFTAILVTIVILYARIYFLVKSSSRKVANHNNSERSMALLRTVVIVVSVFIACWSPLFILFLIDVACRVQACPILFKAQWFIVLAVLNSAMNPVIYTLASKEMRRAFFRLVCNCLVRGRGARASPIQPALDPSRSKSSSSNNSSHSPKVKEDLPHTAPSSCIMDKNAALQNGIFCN

In the case of `CCCCCCCCc1ccc(CCC(N)(CO)CO)cc1` [FTY720], in assay [1] (SL animals, tested 48 hours following the end of social defeat stress, p=0.0049 (FIG. 2B)), the social interaction time result is on record as “prevented the decreased interaction time”. Besides, the “effect of the drug in resilient and control animals” value in assay [1] (resilient LL rats or control rats) was “no effects”. The defeat latency entry in assay [2] is on record as “tended to increase defeat latency of SL animals to the level of LL animals”. Also, the “agonist activity at Sph receptors” value in assay [3] is “potent agonist”.
